Where no end group is shown, it is not given here.
Legend:
[1] = system: iPS cells (clone name: 201B2 or 201B7); assay: Quantitative RT-PCR of stem cell marker gene and germ layer differentiation marker genes in iPS cells; format: cell-based, human; details: peptide concentration 6.0 μM, FIG. 3
Protocol: The stem cell differentiation-inducing activity of a differentiation-inducing synthetic peptide (Sample 1) obtained in Example 1 above was evaluated by measuring changes over time in the expressed amounts of a stem cell differentiation marker gene (that is, a stem cell marker gene) and differentiation marker genes for the three kinds of germ layer cells. iPS cells that had been cultured and passaged in vitro were used as the test cells. The specifics of the evaluation test were as follows.
iPS cells (clone name: 201B2 or 201B7) were cultured as in Example 2 except that Sample 1 that had been prepared with DMSO/EtOH=1/1 to a peptide concentration of 4 mM was added 1.5 μL/well (that is to a peptide concentration of 6.0 μM in the well). A peptide-free group was also established as a comparative example. The medium was replaced and peptide was added two days, four days and six days after initiation of iPS cell culture. […]
25 to […] of purified RNA was supplied to quantitative RT-PCR, and the expressed amounts of a stem cell marker gene and differentiation marker genes for the three kinds of germ layer cells were quantified. […] A One Step SYBR® PrimeScript® PLUS RT-PCR Kit (TaKaRa Bio) was used for the quantitative RT-PCR, in accordance with the attached manual. […] The quantitative RT-PCR reaction consisted of 5 minutes of incubation at 42° C. to perform reverse transcription, followed by 10 seconds of incubation at 95° C., and 40 cycles consisting of 5 seconds at 95° and 31 seconds at 63° C.
The quantitative results for expression of a stem cell marker gene and differentiation marker genes for the three kinds of germ layer cells are shown in FIG. 3. The expressed amounts of these genes were first corrected by the expressed amounts of the GAPDH gene in each test group, and the relative expressed amount of the gene in the Sample 1 group relative to the expressed amount of the gene in the peptide-free group was determined by the ΔΔCt method.

[2] = system: human-derived iPS cells (clone name: 201B2 or 201B7); assay: Stem cell differentiation-inducing activity based on iPS cell transformation (optical microscope morphology); details: peptide concentration 4.0 μM; eight days after the beginning of culture; FIG. 1; peptide-free group 80% or more black (undifferentiated)
Protocol: The differentiation-inducing activity of a differentiation-inducing synthetic peptide (Sample 1) obtained in Example 1 above was evaluated based on the transformation of iPS cells cultured and passaged in vitro. A peptide-free group was also provided as a comparative example. The details of the evaluation test were as follows.
Cells supplied by the Kyoto University Center for iPS cell Research and Application were used as the human-derived iPS cells in this example (clone name: 201B2 or 201B7, reference source: Takahashi K et al., Cell, 131, 861-872 (2007)). For the feeder cells used in culturing these iPS cells, mouse embryonic fibroblasts (MEF cells) were used to passage (maintain) the iPS cells, while mouse embryonic fibroblasts (cell strain SNL 76/7) supplied under license by the Baylor College of Medicine were used in testing to evaluate the stem cell differentiation-inducing activity of the differentiation-inducing synthetic peptide (Sample 1).
Feeder cells that had been inactivated by mitomycin C treatment were seeded ahead of time on a gelatin-coated 24-well plate 1 to 4 days before seeding of the iPS cells. […]

How did the “increase in the relative expressed amount of the AFP gene” value ([1]; 20th day after initiation of culture) turn out when “LLLLLLVGLTAPAGKKRTLRKNDRKKR-CONH2 (LLLLLLVGLTAPAGKKRTLRKNDRKKR-NH2) [Sample 1]” was run?
The value was “particularly dramatic”.

What about the “expression timing of endodermal cell marker genes SOX17, GATA4 and FOXA2” value [1] of the same substance?
Its value is “sooner than the AFP gene”.

What about the “relative expressed amount of the AFP gene (endodermal marker gene) relative to peptide-free group (ΔΔCt, GAPDH corrected)” value ([1]; beginning 13 days after initiation of culture) of the same substance?
Its value is “increased much more than the relative expressed amounts of the other genes”.

And the “part of microscope field appearing white (occupied by colonies of differentiated iPS cells)” value [2]?
The value was at least 80%.

From US10100284B2, “Method for inducing differentiation of pluripotent stem cells into endodermal cells” (TOAGOSEI CO., LTD., priority 2013, dated 2018)
